Data on three molecules can be found in ChEMBL document CHEMBL1201862, “PubChem BioAssay data set” (2004).

Activity calls are given as the source filed them.

What all share (format): functional
Assay [1] deals with T1, Tyrosine-protein phosphatase non-receptor type 22 (Homo sapiens, UniProt Q9Y2R2).
T1 sequence (Q9Y2R2 whole entry): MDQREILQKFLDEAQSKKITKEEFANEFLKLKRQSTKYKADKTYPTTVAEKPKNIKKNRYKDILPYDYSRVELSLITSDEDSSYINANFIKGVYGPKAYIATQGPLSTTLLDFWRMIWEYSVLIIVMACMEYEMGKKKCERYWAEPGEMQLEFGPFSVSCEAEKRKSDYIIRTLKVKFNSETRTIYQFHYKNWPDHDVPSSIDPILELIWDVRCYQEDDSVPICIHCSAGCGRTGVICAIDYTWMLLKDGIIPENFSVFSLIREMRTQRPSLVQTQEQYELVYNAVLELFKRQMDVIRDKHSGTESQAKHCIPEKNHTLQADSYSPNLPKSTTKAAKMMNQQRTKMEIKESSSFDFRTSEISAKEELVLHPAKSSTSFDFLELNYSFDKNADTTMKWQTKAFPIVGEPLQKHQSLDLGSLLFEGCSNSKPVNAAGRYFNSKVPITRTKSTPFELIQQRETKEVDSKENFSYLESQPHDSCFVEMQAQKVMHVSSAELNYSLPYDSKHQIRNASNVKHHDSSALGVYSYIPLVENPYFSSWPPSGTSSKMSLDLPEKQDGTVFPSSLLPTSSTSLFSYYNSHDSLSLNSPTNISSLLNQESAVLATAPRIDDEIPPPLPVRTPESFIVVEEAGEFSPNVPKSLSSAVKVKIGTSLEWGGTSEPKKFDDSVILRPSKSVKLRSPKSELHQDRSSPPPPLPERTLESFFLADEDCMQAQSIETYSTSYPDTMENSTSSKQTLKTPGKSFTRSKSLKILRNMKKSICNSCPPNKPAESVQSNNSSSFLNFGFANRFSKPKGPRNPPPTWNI

The nature of assay [2]: LGR2 antagonists, dose response, cell-based, HEK293, CRE-luciferase reporter, cherry pick, set 2 (AID 743343).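 Also: transfected cells were stimulated with diluted bursicon conditioned medium after compound addition.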 In general terms: A reporter such as luciferase makes a cellular process visible.
Assay [3] has as its target T2, Sentrin-specific protease 7 (Homo sapiens, UniProt Q9BQF6).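 Also: Luminescence-based dose-response confirmation of ultra-high-throughput screening hits, measuring inhibition of SENP7.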
T2 sequence (Q9BQF6 whole entry): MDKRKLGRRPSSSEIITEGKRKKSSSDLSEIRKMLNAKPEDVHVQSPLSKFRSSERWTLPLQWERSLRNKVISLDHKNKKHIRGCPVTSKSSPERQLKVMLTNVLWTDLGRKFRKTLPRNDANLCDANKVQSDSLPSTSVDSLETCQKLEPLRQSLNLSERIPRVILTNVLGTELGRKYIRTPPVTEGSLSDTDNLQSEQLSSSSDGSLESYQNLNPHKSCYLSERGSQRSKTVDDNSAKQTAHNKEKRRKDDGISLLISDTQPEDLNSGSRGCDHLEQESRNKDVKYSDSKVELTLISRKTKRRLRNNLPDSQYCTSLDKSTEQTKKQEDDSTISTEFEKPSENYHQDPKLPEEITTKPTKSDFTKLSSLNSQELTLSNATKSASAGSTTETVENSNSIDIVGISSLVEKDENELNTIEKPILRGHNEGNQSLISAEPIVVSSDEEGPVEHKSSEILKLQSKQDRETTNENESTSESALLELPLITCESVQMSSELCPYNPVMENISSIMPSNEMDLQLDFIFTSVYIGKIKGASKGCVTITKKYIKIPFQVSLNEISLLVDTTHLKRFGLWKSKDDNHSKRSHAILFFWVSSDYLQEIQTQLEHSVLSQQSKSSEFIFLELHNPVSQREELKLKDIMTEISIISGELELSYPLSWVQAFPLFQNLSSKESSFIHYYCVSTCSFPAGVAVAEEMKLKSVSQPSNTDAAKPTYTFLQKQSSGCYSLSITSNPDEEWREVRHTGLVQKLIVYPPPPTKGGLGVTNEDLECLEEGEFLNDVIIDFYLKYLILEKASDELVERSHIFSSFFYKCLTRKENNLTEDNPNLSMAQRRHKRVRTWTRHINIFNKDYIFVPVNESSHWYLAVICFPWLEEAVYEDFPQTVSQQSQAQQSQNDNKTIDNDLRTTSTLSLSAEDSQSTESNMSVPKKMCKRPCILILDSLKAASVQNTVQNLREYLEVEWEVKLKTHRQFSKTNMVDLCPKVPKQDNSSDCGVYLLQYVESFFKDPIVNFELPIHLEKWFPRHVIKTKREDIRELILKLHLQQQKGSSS

Assay [4] has as its target Tyrosine-protein kinase JAK2 (Homo sapiens, UniProt O60674).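 Also: JAK2 tested as one member of a kinase panel.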
Assay [5] addresses Tyrosine-protein kinase Blk (Homo sapiens, UniProt P51451).
Assay [6] addresses Glycogen synthase kinase-3 alpha (Homo sapiens, UniProt P49840).
The target of another assay is Ephrin type-A receptor 2 (Homo sapiens, UniProt P29317).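 Also: EPHA2 tested as one member of a kinome-wide kinase panel.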
Sequence of Ephrin type-A receptor 2 (P29317 whole entry): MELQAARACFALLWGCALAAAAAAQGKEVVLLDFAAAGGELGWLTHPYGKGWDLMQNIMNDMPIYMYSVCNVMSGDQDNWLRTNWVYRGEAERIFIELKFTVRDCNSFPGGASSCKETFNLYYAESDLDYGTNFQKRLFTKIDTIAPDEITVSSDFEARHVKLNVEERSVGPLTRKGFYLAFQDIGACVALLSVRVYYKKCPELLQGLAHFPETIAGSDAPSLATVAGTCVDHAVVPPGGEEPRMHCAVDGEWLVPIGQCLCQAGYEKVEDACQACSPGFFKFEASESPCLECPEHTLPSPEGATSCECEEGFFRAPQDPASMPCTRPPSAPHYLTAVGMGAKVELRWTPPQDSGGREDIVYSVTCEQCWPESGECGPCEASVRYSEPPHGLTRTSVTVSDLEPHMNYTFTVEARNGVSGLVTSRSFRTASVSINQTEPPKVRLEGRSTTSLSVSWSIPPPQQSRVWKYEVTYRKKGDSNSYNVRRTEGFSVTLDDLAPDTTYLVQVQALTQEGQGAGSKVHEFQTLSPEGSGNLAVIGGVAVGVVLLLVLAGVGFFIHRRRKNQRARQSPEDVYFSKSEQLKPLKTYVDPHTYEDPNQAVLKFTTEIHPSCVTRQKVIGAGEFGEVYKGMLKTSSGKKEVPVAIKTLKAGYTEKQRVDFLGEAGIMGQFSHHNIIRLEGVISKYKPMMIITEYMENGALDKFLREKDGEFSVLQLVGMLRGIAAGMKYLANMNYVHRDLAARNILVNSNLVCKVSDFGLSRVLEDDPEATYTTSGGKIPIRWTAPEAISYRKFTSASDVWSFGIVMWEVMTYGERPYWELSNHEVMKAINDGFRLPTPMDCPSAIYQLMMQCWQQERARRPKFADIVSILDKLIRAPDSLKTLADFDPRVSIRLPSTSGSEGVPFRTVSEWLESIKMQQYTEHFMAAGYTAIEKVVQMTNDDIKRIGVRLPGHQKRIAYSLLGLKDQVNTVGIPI
Assay [7] addresses Insulin-like growth factor 1 receptor (Homo sapiens, UniProt P08069). Put plainly: Navigating the Kinome. Panel member name: IGF1R.
The target of a further assay is Aurora kinase B (Homo sapiens, UniProt Q96GD4).
Sequence of Aurora kinase B (Q96GD4 whole entry): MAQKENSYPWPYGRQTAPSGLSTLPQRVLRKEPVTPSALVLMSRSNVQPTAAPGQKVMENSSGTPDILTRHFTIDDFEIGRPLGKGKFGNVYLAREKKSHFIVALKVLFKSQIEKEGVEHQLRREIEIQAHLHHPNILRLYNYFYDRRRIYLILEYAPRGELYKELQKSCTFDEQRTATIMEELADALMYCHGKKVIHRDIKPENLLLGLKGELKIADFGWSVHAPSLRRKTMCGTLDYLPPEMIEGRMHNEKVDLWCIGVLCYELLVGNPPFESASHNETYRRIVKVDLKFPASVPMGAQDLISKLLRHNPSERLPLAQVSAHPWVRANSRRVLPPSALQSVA
Assay [8] addresses Homeodomain-interacting protein kinase 4 (Homo sapiens, UniProt Q8NE63).
Assay [9] concerns the target Serine/threonine-protein kinase pim-2 (Homo sapiens, UniProt Q9P1W9).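 Also: value comes from a broad kinase panel profiling study in which PIM2 was one of the panel members.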

Sequence of Tyrosine-protein kinase JAK2 (O60674 whole entry): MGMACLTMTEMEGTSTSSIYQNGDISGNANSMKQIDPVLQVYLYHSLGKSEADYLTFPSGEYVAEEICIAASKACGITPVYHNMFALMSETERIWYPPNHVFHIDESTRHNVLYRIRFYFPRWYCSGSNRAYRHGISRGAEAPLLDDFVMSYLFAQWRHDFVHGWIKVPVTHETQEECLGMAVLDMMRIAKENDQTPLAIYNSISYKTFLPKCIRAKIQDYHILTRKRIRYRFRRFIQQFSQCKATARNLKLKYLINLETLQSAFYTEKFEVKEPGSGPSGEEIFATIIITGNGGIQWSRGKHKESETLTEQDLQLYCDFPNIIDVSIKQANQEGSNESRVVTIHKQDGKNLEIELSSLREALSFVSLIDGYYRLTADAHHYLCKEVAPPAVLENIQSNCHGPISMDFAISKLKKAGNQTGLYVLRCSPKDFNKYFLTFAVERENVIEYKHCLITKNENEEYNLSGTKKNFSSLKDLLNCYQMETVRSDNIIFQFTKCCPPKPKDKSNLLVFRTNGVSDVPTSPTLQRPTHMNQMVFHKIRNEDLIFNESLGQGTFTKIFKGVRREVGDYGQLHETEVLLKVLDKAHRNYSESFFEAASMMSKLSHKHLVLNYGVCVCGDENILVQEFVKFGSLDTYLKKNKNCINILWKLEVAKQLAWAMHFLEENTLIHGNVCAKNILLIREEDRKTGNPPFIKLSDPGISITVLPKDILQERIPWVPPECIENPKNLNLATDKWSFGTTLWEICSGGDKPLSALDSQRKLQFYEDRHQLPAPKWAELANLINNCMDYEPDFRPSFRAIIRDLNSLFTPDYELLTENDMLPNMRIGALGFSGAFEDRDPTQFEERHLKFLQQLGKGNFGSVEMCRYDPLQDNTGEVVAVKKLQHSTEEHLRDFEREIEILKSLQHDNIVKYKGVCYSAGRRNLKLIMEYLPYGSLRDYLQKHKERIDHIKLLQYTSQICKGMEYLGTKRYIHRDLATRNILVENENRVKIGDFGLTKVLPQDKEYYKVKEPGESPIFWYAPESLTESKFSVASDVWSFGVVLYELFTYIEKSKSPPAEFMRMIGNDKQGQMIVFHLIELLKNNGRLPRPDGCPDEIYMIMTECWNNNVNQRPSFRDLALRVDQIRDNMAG
Sequence of Insulin-like growth factor 1 receptor (P08069 31-736 limits assumed): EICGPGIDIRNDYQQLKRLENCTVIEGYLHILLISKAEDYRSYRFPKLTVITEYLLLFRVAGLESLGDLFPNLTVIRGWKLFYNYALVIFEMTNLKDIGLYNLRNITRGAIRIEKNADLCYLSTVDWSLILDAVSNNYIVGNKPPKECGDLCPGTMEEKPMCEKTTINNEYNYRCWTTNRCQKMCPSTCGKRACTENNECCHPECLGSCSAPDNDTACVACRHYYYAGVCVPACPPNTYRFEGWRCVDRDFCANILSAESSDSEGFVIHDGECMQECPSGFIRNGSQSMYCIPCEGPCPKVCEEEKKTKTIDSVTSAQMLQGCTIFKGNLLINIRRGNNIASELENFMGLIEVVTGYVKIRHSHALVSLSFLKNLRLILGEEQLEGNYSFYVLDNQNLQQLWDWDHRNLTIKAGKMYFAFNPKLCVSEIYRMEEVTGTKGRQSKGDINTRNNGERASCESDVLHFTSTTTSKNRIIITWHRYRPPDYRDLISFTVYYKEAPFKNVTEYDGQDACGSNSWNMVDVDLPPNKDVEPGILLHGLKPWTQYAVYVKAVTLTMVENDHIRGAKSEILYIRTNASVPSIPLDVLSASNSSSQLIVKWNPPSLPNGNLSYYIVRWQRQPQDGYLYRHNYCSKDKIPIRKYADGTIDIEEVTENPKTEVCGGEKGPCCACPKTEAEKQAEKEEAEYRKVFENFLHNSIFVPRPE
Sequence of Insulin-like growth factor 1 receptor (P08069 741-1367 limits assumed): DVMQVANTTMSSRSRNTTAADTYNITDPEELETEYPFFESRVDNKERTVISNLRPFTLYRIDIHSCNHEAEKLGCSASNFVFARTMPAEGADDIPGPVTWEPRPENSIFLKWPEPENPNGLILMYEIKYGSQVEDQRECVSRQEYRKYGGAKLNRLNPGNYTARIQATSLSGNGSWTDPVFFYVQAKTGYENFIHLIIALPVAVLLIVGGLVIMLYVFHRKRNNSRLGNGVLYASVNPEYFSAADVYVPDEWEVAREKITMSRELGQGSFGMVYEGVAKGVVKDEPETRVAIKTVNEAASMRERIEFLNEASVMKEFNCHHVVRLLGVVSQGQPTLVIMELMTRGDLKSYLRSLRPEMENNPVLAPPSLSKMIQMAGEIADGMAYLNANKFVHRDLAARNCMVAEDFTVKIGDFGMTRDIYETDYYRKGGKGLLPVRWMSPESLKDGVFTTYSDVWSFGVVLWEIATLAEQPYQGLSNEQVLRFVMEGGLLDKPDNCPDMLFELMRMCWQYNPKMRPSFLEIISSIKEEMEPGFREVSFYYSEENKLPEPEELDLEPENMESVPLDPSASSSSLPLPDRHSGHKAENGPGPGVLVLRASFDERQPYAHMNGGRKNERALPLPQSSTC
Sequence of Tyrosine-protein kinase Blk (P51451 whole entry): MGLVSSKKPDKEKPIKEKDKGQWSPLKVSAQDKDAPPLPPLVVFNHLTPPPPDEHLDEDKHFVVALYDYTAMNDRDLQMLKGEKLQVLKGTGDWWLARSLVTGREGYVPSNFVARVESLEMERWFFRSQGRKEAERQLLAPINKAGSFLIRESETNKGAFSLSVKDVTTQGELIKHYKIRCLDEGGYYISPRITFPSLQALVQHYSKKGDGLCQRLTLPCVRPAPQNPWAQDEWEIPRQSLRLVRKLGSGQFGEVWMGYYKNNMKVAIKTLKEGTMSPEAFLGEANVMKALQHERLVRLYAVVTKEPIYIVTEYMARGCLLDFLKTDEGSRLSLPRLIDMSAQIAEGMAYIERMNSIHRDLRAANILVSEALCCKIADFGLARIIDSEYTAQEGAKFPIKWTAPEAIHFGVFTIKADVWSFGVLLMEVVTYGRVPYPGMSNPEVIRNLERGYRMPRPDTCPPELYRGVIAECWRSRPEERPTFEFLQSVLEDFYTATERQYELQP
Sequence of Serine/threonine-protein kinase pim-2 (Q9P1W9 whole entry): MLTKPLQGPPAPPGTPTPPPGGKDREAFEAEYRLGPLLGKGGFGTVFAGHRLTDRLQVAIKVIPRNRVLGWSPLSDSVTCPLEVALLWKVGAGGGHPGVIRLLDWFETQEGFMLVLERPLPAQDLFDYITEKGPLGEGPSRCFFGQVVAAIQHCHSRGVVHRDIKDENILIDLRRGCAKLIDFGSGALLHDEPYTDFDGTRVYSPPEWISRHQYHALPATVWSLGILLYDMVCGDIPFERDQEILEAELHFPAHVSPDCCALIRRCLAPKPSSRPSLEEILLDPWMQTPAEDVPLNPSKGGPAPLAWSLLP

Regarding `CCCc1nc2c(=O)n(C)c(=O)nc-2n(C)n1`, in [1], the IC50 was 1.6 µM (active). The concentration at half-maximal activity (AC50) in [2] was 5.47 µM (active).

Regarding `CC(=O)c1ccc(NC2=C(N3CCOCC3)C(=O)c3ccccc3C2=O)cc1`, the concentration for half-maximal inhibition (IC50) in [3] was 18 µM (active).

As to `COc1cc2ncn(-c3cc(OCc4ccccc4C(F)(F)F)c(C(N)=O)s3)c2cc1OC` [GW843682X], the inhibitory constant (Ki) is 1.26 µM (active) in assay [4]; > 1.58 µM (inactive) in assay [5]; > 7.94 µM (inactive) in [6]; > 3.16 µM (inactive) on Ephrin type-A receptor 2; > 1 µM (inactive) in [7]; > 6.31 µM (inactive) on Aurora kinase B. Moreover, the Ki in [8] is > 7.94 µM (inactive); in assay [9], > 1.58 µM (inactive).

Usually IC50 stands for the midpoint of a concentration-inhibition curve. For orientation: AC50 means the midpoint of the concentration-response curve, whichever way the signal moves. One may read the Ki as a dissociation constant, usually derived from enzyme kinetics or from competition with a known ligand.
